Measurements from ChEMBL document CHEMBL4330097 (J Med Chem, 2019).
Values after ≈ are worked out from the molar mass of the structure shown.

Legend:
[1] = Clearance in human liver microsomes at 1 uM up 60 mins in presence of NADP and glucose-6-phosphate by LC-MS/MS analysis; assay type: ADME, Microsome; details: 1 h
[2] = Aqueous solubility of the compound in DMSO at 6.5 after 24 hrs by HPLC-MS/MS analysis; assay type: physicochemical; details: aqueous medium with DMSO, pH 6.5
[3] = Apparent permeability across apical to basolateral side in human Caco2 cells at 2 uM after 2 hrs by LC-MS/MS analysis; assay type: ADME, cell-based; details: Caco-2
[4] = Clearance in Han/Wistar rat hepatocytes at 1 uM up 90 mins by HPLC-MS/MS analysis; assay type: ADME, cell-based, Hepatocyte
[5] = Maximal oral bioavailability in human; assay type: ADME, organism-based; details: in vivo
[6] = Chemical stability of the compound assessed as degradation rate at pH 1 to 10 after 24 hrs by HPLC-UV analysis; assay type: physicochemical; details: buffer, pH 1, 24 h
[7] = Maximal oral bioavailability in Han/Wistar rat; assay type: ADME, organism-based; details: in vivo
[8] = Apparent permeability across basolateral to apical side in human Caco2 cells at 2 uM after 2 hrs by LC-MS/MS analysis; assay type: ADME, cell-based; details: Caco-2
[9] = Lipophilicity, log D of the compound in acetonitrile/water at 1:1 ratio at pH 7.5 by RP-HPLC analysis; assay type: physicochemical; details: acetonitrile/water 1:1 (RP-HPLC)

Q: With CN1CCN(c2cnc3c(C4CCN(C(=O)c5ccc(OC(F)(F)F)cc5N)CC4)ncnc3c2)CC1 [BAY-885] as the molecule, how does the CLH [1] read?
A: 13 mL/min/kg

Q: And the solubility at 24 h [2]?
A: 218 µg/mL (≈ 423 µM)

Q: What about the Papp A→B at 2 h, 2 µM [3] of the same molecule?
A: 18.4 ×10⁻⁶ cm/s

Q: What about the CLH [4] of the same molecule?
A: 61.7 mL/min/kg

Q: What about the Fmax [5] of the same molecule?
A: 38%

Q: And the Stability [6]?
A: Stable

Q: And the Fmax [7]?
A: 13%

Q: What about the Papp B→A at 2 h, 2 µM [8] of the same molecule?
A: 10.7 ×10⁻⁶ cm/s

Q: And the chromatographic logD [9]?
A: 2.4
